In patent publication US10004701B2, “Methods and compositions for treating infection” (UNIVERSITY OF ROCHESTER, priority 2012, dated 2018):
Like-named read-outs stand apart in the source and are kept apart here.

Key:
Experiment in all cases: AK assay 384-well format, Prestwick library screening
E. cloacae = assay type: cell-based, Enterobacter cloacae; conditions: 50 μM final drug concentration; for fold induction at 50 µM: Enterobacter cloacae, 3 h
E. coli = assay type: cell-based, Escherichia coli; conditions: 50 μM final drug concentration; for fold induction at 50 µM: Escherichia coli, 3 h
K. pneumoniae = assay type: cell-based, Klebsiella pneumoniae; conditions: 50 μM final drug concentration; for fold induction at 50 µM: Klebsiella pneumoniae, 3 h
[1] = tested on: S. aureus strain USA300-0114; assay type: cell-based, Staphylococcus aureus; conditions: 50 μM final drug concentration; for fold induction at 50 µM: Staphylococcus aureus, USA300, 3 h
E. faecium = assay type: cell-based, Enterococcus faecium; conditions: 50 μM final drug concentration; for fold induction at 50 µM: Enterococcus faecium, 3 h
[2] = tested on: A. baumannii strain 98-37-09; assay type: cell-based, Acinetobacter baumannii; conditions: 50 μM final drug concentration; for fold induction at 50 µM: Acinetobacter baumannii, 983709, 3 h
P. aeruginosa = assay type: cell-based, Pseudomonas aeruginosa; conditions: 50 μM final drug concentration; for fold induction at 50 µM: Pseudomonas aeruginosa, 3 h
[3] = planktonic, cutoff for positive-scoring molecules 3-fold increase, read-out: AK-based Prestwick Library Screening Results, E. cloacae (fold increase in extracellular AK activity)
[4] = planktonic, cutoff for positive-scoring molecules 3-fold increase, read-out: AK-based Prestwick Library Screening Results, E. coli (fold increase in extracellular AK activity)
[5] = planktonic, cutoff for positive-scoring molecules 3-fold increase, read-out: AK-based Prestwick Library Screening Results, K. pneumoniae (fold increase in extracellular AK activity)
[6] = planktonic, cutoff for positive-scoring molecules 3-fold increase, read-out: AK-based Prestwick Library Screening Results, S. aureus (fold increase in extracellular AK activity)
[7] = planktonic, cutoff for positive-scoring molecules 3-fold increase, read-out: AK-based Prestwick Library Screening Results, E. faecium (fold increase in extracellular AK activity)
[8] = planktonic, cutoff for positive-scoring molecules 3-fold increase, read-out: AK-based Prestwick Library Screening Results, A. baumannii (fold increase in extracellular AK activity)
[9] = planktonic, cutoff for positive-scoring molecules 3-fold increase, read-out: AK-based Prestwick Library Screening Results, P. aeruginosa (fold increase in extracellular AK activity)
[10] = planktonic, cutoff for positive-scoring molecules 3-fold increase
[11] = 384-well format, cutoff for positive-scoring molecules 3-fold increase, read-out: AK-based Prestwick Library Screening Results, E. cloacae (increase in extracellular AK activity)
[12] = 384-well format, cutoff for positive-scoring molecules 3-fold increase, read-out: AK-based Prestwick Library Screening Results, E. coli (increase in extracellular AK activity)
[13] = 384-well format, cutoff for positive-scoring molecules 3-fold increase, read-out: AK-based Prestwick Library Screening Results, K. pneumoniae (increase in extracellular AK activity)
[14] = 384-well format, cutoff for positive-scoring molecules 3-fold increase, read-out: AK-based Prestwick Library Screening Results, S. aureus (increase in extracellular AK activity)
[15] = 384-well format, cutoff for positive-scoring molecules 3-fold increase, read-out: AK-based Prestwick Library Screening Results, E. faecium (increase in extracellular AK activity)
[16] = 384-well format, cutoff for positive-scoring molecules 3-fold increase, read-out: AK-based Prestwick Library Screening Results, A. baumannii (increase in extracellular AK activity)
[17] = 384-well format, cutoff for positive-scoring molecules 3-fold increase, read-out: AK-based Prestwick Library Screening Results, P. aeruginosa (increase in extracellular AK activity)

COCCOC(=O)C1=C(C)NC(C)=C(C(=O)OC(C)C)C1c1cccc([N+](=O)[O-])c1 (stereo not shown) [Nimodipine]
fold induction at 50 µM (E. cloacae; [3]): 1.4
fold induction at 50 µM (E. coli; [4]): 0.9
fold induction at 50 µM (K. pneumoniae; [5]): 0.7
fold induction at 50 µM [1, 6]: 0.7
fold induction at 50 µM (E. faecium; [7]): 1
fold induction at 50 µM [2, 8]: 1
fold induction at 50 µM (P. aeruginosa; [9]): 0.9

O=C1NCCN1c1ncc([N+](=O)[O-])s1 [Niridazole]
fold induction at 50 µM (E. cloacae; planktonic, cutoff for positive 3-fold increase, read-out: AK-based Prestwick Library Screening Results, E. cloacae (fold increase in extracellular AK activity)): 6.1
fold induction at 50 µM (E. coli; planktonic, cutoff for positive 3-fold increase, read-out: AK-based Prestwick Library Screening Results, E. coli (fold increase in extracellular AK activity)): 13.2
fold induction at 50 µM (K. pneumoniae; planktonic, cutoff for positive 3-fold increase, read-out: AK-based Prestwick Library Screening Results, K. pneumoniae (fold increase in extracellular AK activity)): 6
fold induction at 50 µM ([1]; planktonic, cutoff for positive 3-fold increase, read-out: AK-based Prestwick Library Screening Results, S. aureus (fold increase in extracellular AK activity)): 1.8
fold induction at 50 µM (E. faecium; planktonic, cutoff for positive 3-fold increase, read-out: AK-based Prestwick Library Screening Results, E. faecium (fold increase in extracellular AK activity)): 1
fold induction at 50 µM ([2]; planktonic, cutoff for positive 3-fold increase, read-out: AK-based Prestwick Library Screening Results, A. baumannii (fold increase in extracellular AK activity)): 1.4
fold induction at 50 µM (P. aeruginosa; planktonic, cutoff for positive 3-fold increase, read-out: AK-based Prestwick Library Screening Results, P. aeruginosa (fold increase in extracellular AK activity)): 1.2

COC(=O)C1=C(C)NC(C)=C(C(=O)OCC(C)C)C1c1ccccc1[N+](=O)[O-] (stereo not shown) [Nisoldipine]
fold induction at 50 µM (E. cloacae; [3]): 1
fold induction at 50 µM (E. coli; [4]): 0.9
fold induction at 50 µM (K. pneumoniae; [5]): 0.7
fold induction at 50 µM [1, 6]: 0.4
fold induction at 50 µM (E. faecium; [7]): 0.9
fold induction at 50 µM [2, 8]: 1.4
fold induction at 50 µM (P. aeruginosa; [9]): 0.8

Cl.Cl.c1ccc2c3c([nH]c2c1)C1C2CCC(C4CCCNC42)N1CC3 (stereo not shown) [Nitrarine dihydrochloride]
AK-based Prestwick Library Screening Results, E. cloacae (fold increase in extracellular AK activity) (E. cloacae; [10]): 1.4
AK-based Prestwick Library Screening Results, E. coli (fold increase in extracellular AK activity) (E. coli; planktonic, […]): 1.2
AK-based Prestwick Library Screening Results, K. pneumoniae (fold increase in extracellular AK activity) (K. pneumoniae; [10]): 1.1
AK-based Prestwick Library Screening Results, S. aureus (fold increase in extracellular AK activity) [1, 10]: 1.3
AK-based Prestwick Library Screening Results, E. faecium (fold increase in extracellular AK activity) (E. faecium; [10]): 1.0
AK-based Prestwick Library Screening Results, A. baumannii (fold increase in extracellular AK activity) [2, 10]: 1.0
AK-based Prestwick Library Screening Results, P. aeruginosa (fold increase in extracellular AK activity) (P. aeruginosa; [10]): 1.1

CCOC(=O)C1=C(C)NC(C)=C(C(=O)OC)C1c1cccc([N+](=O)[O-])c1 (stereo not shown) [Nitrendipine]
fold induction at 50 µM (E. cloacae; [3]): 1.4
fold induction at 50 µM (E. coli; [4]): 0.8
fold induction at 50 µM (K. pneumoniae; [5]): 0.8
fold induction at 50 µM [1, 6]: 0.4
fold induction at 50 µM (E. faecium; [7]): 0.9
fold induction at 50 µM [2, 8]: 0.9
fold induction at 50 µM (P. aeruginosa; [9]): 0.9

CCN(CC)CCOC(=O)C1(c2ccc([N+](=O)[O-])cc2)CCCC1.Cl [Nitrocaramiphen hydrochloride]
AK-based Prestwick library screening result, E. cloacae (fold increase in extracellular AK activity) (E. cloacae; planktonic E. cloacae, […]): 1.2
AK-based Prestwick library screening result, E. coli (fold increase in extracellular AK activity) (E. coli; planktonic E. coli, […]): 0.9
AK-based Prestwick library screening result, K. pneumoniae (fold increase in extracellular AK activity) (K. pneumoniae; planktonic K. pneumoniae, […]): 0.7
AK-based Prestwick library screening result, S. aureus (fold increase in extracellular AK activity) ([1]; planktonic S. aureus, […]): 0.6
AK-based Prestwick library screening result, E. faecium (fold increase in extracellular AK activity) (E. faecium; planktonic E. faecium, […]): 0.9
AK-based Prestwick library screening result, A. baumannii (fold increase in extracellular AK activity) ([2]; planktonic A. baumannii, […]): 0.7
AK-based Prestwick library screening result, P. aeruginosa (fold increase in extracellular AK activity) (P. aeruginosa; planktonic P. aeruginosa, […]): 0.8

NC(=O)N/N=C/c1ccc([N+](=O)[O-])o1 [Nitrofural]
fold induction at 50 µM (E. cloacae; planktonic E. cloacae, cutoff for positive-scoring molecules 3-fold increase, read-out: AK-based Prestwick Library Screening Results, E. cloacae (increase in extracellular AK activity)): 0.8
fold induction at 50 µM (E. coli; planktonic E. coli, cutoff for positive-scoring molecules 3-fold increase, read-out: AK-based Prestwick Library Screening Results, E. coli (increase in extracellular AK activity)): 0.7
fold induction at 50 µM (K. pneumoniae; planktonic K. pneumoniae, cutoff for positive-scoring molecules 3-fold increase, read-out: AK-based Prestwick Library Screening Results, K. pneumoniae (increase in extracellular AK activity)): 0.2
fold induction at 50 µM ([1]; planktonic S. aureus, cutoff for positive-scoring molecules 3-fold increase, read-out: AK-based Prestwick Library Screening Results, S. aureus (increase in extracellular AK activity)): 0.5
fold induction at 50 µM (E. faecium; planktonic E. faecium, cutoff for positive-scoring molecules 3-fold increase, read-out: AK-based Prestwick Library Screening Results, E. faecium (increase in extracellular AK activity)): 1
fold induction at 50 µM ([2]; planktonic A. baumannii, cutoff for positive-scoring molecules 3-fold increase, read-out: AK-based Prestwick Library Screening Results, A. baumannii (increase in extracellular AK activity)): 1
fold induction at 50 µM (P. aeruginosa; planktonic P. aeruginosa, cutoff for positive-scoring molecules 3-fold increase, read-out: AK-based Prestwick Library Screening Results, P. aeruginosa (increase in extracellular AK activity)): 0.8

O=C1CN(/N=C/c2ccc([N+](=O)[O-])o2)C(=O)N1 [Nitrofurantoin]
fold induction at 50 µM (E. cloacae; [11]): 0.6
fold induction at 50 µM (E. coli; [12]): 0.4
fold induction at 50 µM (K. pneumoniae; [13]): 0.8
fold induction at 50 µM [1, 14]: 0.4
fold induction at 50 µM (E. faecium; [15]): 1
fold induction at 50 µM [2, 16]: 0.5
fold induction at 50 µM (P. aeruginosa; [17]): 0.4

CNC(=C[N+](=O)[O-])NCCSCc1csc(CN(C)C)n1 [Nizatidine]
fold induction at 50 µM (E. cloacae; cutoff for positive-scoring molecules 3-fold increase, read-out: AK-based Prestwick Library Screening Results, E. cloacae (fold increase in extracellular AK activity)): 1.7
fold induction at 50 µM (E. coli; cutoff for positive-scoring molecules 3-fold increase, read-out: AK-based Prestwick Library Screening Results, E. coli (fold increase in extracellular AK activity)): 1.3
fold induction at 50 µM (K. pneumoniae; cutoff for positive-scoring molecules 3-fold increase, read-out: AK-based Prestwick Library Screening Results, K. pneumoniae (fold increase in extracellular AK activity)): 0.9
fold induction at 50 µM ([1]; cutoff for positive-scoring molecules 3-fold increase, read-out: AK-based Prestwick Library Screening Results, S. aureus (fold increase in extracellular AK activity)): 1.2
fold induction at 50 µM (E. faecium; cutoff for positive-scoring molecules 3-fold increase, read-out: AK-based Prestwick Library Screening Results, E. faecium (fold increase in extracellular AK activity)): 1
fold induction at 50 µM ([2]; cutoff for positive-scoring molecules 3-fold increase, read-out: AK-based Prestwick Library Screening Results, A. baumannii (fold increase in extracellular AK activity)): 1
fold induction at 50 µM (P. aeruginosa; cutoff for positive-scoring molecules 3-fold increase, read-out: AK-based Prestwick Library Screening Results, P. aeruginosa (fold increase in extracellular AK activity)): 1.2

COC(=O)Nc1nc2ccc(C(=O)c3cccs3)cc2[nH]1 [Nocodazole]
fold induction at 50 µM (E. cloacae; [11]): 0.7
fold induction at 50 µM (E. coli; [12]): 0.6
fold induction at 50 µM (K. pneumoniae; [13]): 0.5
fold induction at 50 µM [1, 14]: 0.6
fold induction at 50 µM (E. faecium; [15]): 0.9
fold induction at 50 µM [2, 16]: 0.6
fold induction at 50 µM (P. aeruginosa; [17]): 0.6
